The subject of data set [1] is HepG2 cells. The experiment in a line: Annexin V-FITC/PI dual staining, flow cytometry apoptosis. The format is cell-based, human. The note with it: 48 h. On the procedure: HepG2 cells were treated with DMSO or different concentrations of 11m and 11t for 48 h, followed by staining with Annexin-V and PI. The proportion of apoptotic cells was then analyzed using flow cytometry. […] Compared to the control group, the proportion of apoptotic cells increased gradually with increasing drug concentrations (p < 0.01, p < 0.05).
HepG2 cells were seeded in 6-well plates at a density of […] and incubated for 24 h. They were then treated with 11m or 11t at concentrations of 2, 4, and 8 μM for 48 h. After digestion with trypsin without EDTA and washing with PBS, the cells were resuspended in 500 µL Binding Buffer at a concentration of 1 × 10^6 cells/mL. Then, 5 μL of Annexin V-FITC was added, mixed well, followed by the addition of 5 μL Propidium Iodide, mixed gently, and incubated in the dark at room temperature (25 °C) for 10 min. Detection was performed using a flow cytometer (BD Accuri™ C6 Plus) within 1 h.

For data set [2], the system named is HepG2 cells. Put plainly: DAPI staining for apoptotic morphology. The format is cell-based, human. As to conditions: HepG2, 2, 4, 8 μM, 48 h. The protocol: To confirm the apoptosis-inducing activity of 11m and 11t in liver cancer cells, HepG2 cells were treated with different concentrations of compounds 11m and 11t for 48 h, followed by DAPI staining.
HepG2 cells were seeded in 48-well plates and incubated for 24 h, then treated with different concentrations of 11m and 11t (2, 4, and 8 μM) for 48 h. After removing the original culture medium, the cells were washed with PBS and fixed with 4% paraformaldehyde at room temperature for 20 min. After washing with PBS, the cells were stained with DAPI (10 μg/mL) in the dark at room temperature for 5 min. After washing with PBS, apoptotic morphological changes were observed using a fluorescence microscope.

In data set [3] the test system is HepG2 cells. Put plainly: Scratch wound healing assay. Type of data set: cell-based, human. From the text: To investigate the effect of the compounds on the migration of wild-type liver cancer cells, we conducted wound healing and Transwell assays to assess changes in the migration ability of HepG2 cells after treatment with compounds 11m and 11t. […] The Transwell migration assay, another important method for evaluating cell migration, involves seeding tumor cells in a chamber and assessing their migration ability by counting the number of cells that pass through the membrane. […] These findings indicate that compounds 11m and 11t can inhibit the migration ability of liver cancer cells in a concentration-dependent manner.
HepG2 cells were seeded in 24-well plates, and when the cell density reached 95%, a vertical scratch was made along the edge of the plate cover using a yellow pipette tip. After washing with PBS, images of the scratches were taken at 0 h under a microscope, and each well was treated with 11m or 11t (0, 2, 4, and 8 μM) and incubated in a cell culture incubator. Images were taken at 12, 24, and 48 h after the scratch was made.

The test system of a further data set is p-H2AX in HepG2 cells. The experiment in a line: DNA damage immunofluorescence and Western blot of p-H2AX. The format is cell-based, human. As to conditions: HepG2, 2, 4, 8 μM. On the procedure:
Previous studies have reported that the phosphorylation of H2AX is a highly specific and sensitive molecular marker of DNA damage. To determine whether the inhibitory effects of compounds 11m and 11t on HepG2 cells are related to p-H2AX, we conducted immunofluorescence and Western blot analyses.
HepG2 cells were seeded in laser confocal culture dishes (Nest, Wuxi, China) and incubated for 24 h, followed by treatment with 11m or 11t (2, 4, and 8 μM) for 24 h. After washing with PBS, cells were fixed with 4% paraformaldehyde at room temperature for 20 min. After washing with PBS, cells were permeabilized with 0.5% Triton X-100 for 20 min, followed by further washing with PBS. Cells were then blocked with goat serum at room temperature for 1 h, followed by incubation with p-H2AX (Cell Signaling Technology, Beverly, MA, USA) at a dilution of 1:500 overnight at 4 °C. After washing with PBS, cells were incubated with Cy3 (Proteintech, Wuhan, China) at a dilution of 1:100 in the dark at room temperature for 1 h. After washing with PBS, nuclei were stained with DAPI for 5 min. Cells were observed and imaged using an oil immersion lens under a laser confocal microscope (Nikon, Tokyo, Japan).
HepG2 cells were seeded in 6-well plates and incubated for 24 h. […] Protein supernatants were mixed with loading buffer, denatured at 100 °C for 10 min, and quantified using BCA. […]

For the next data set, the system named is normal liver cells (L02). The experiment in a line: CCK8 toxicity against normal liver cells (L02). As to conditions: Figure 3.
For data set [4], the system named is HepG2 cells. Put plainly: CCK8 cell viability / IC50 assay on HepG2 cells. The note with it: for % Cell Viability (10 μM): 72 h; for IC50: read-out: HepG2, IC50 (μM) 72 h.

On to `COc1cc2ncnc(Nc3cccc(-c4cn(Cc5ccc(I)cc5)nn4)c3)c2cc1OCCCN1CCOCC1` [Compound 11m, N-(3-(1-(4-iodobenzyl)-1H-1,2,3-triazol-4-yl)phenyl)-7-methoxy-6-(3-morpholinopropoxy)quinazolin-4-amine], for which the results for the “total proportion of apoptotic HepG2 cells” value in the data set on HepG2 cells [1] (2 μM), with HepG2 cells [1] (4 μM) and in the data set on HepG2 cells [1] (8 μM) were 1.59%, 9.46% and 31.66%, respectively. Besides, the “apoptotic morphological changes (DAPI staining)” value in the data set with HepG2 cells [2] is “typical apoptotic characteristics”. Also, the wound-healing rate turned out to be 14.32% with HepG2 cells [3] (HepG2, 2 μM, 12 h); 20.33% in the data set on HepG2 cells [3] (HepG2, 2 μM, 24 h); 41.13% in the data set with HepG2 cells [3] (HepG2, 2 μM, 48 h); 13.89% in the data set on HepG2 cells [3] (HepG2, 4 μM, 12 h); 20.60% in the data set with HepG2 cells [3] (HepG2, 4 μM, 24 h); 36.35% with HepG2 cells [3] (HepG2, 4 μM, 48 h). The wound-healing rate in the data set with HepG2 cells [3] (HepG2, 8 μM, 12 h) was found to be 8.96%; with HepG2 cells [3] (HepG2, 8 μM, 24 h), 16.39%; in the data set with HepG2 cells [3] (HepG2, 8 μM, 48 h), 18.48%. Further, in the data set with p-H2AX in HepG2 cells, the “expression of p-H2AX” value is given as “increased”. Further, in the data set with normal liver cells (L02), the “toxicity against normal liver cells (L02)” value is “favorable safety profile”. Also, the “% Cell Viability (10 μM)” value in the data set with HepG2 cells [4] amounted to 5.86 ± 0.04%. In the data set on HepG2 cells [4], the IC50 is 3.08 ± 0.37 µM.

With `COc1cc2ncnc(Nc3cccc(-c4cn(Cc5cccc(I)c5)nn4)c3)c2cc1OCCCN1CCOCC1` [Compound 11t, N-(3-(1-(3-iodobenzyl)-1H-1,2,3-triazol-4-yl)phenyl)-7-methoxy-6-(3-morpholinopropoxy)quinazolin-4-amine], the “total proportion of apoptotic HepG2 cells” value worked out at 13.44% in the data set on HepG2 cells [1] (2 μM), 33.57% in the data set with HepG2 cells [1] (4 μM) and 62.82% in the data set with HepG2 cells [1] (8 μM). The “apoptotic morphological changes (DAPI staining)” value in the data set on HepG2 cells [2] is given as “typical apoptotic characteristics”. In addition, the wound-healing rate in the data set with HepG2 cells [3] (HepG2, 2 μM, 12 h) is reported as 11.03%; with HepG2 cells [3] (HepG2, 2 μM, 24 h), 16.02%; with HepG2 cells [3] (HepG2, 2 μM, 48 h) it was 35.36%; with HepG2 cells [3] (HepG2, 4 μM, 12 h), 14.18%; in the data set with HepG2 cells [3] (HepG2, 4 μM, 24 h), 25.67%; in the data set on HepG2 cells [3] (HepG2, 4 μM, 48 h) it was 33.66%. For the same molecule, the wound-healing rate is listed as 9.87% with HepG2 cells [3] (HepG2, 8 μM, 12 h); 13.26% in the data set with HepG2 cells [3] (HepG2, 8 μM, 24 h); 19.54% with HepG2 cells [3] (HepG2, 8 μM, 48 h). Besides, the “expression of p-H2AX” value in the data set on p-H2AX in HepG2 cells is listed as “increased”. Further, the “toxicity against normal liver cells (L02)” value with normal liver cells (L02) was “favorable safety profile”. Besides, in the data set with HepG2 cells [4], the “% Cell Viability (10 μM)” value stood at 5.22 ± 0.36%. In addition, the IC50 with HepG2 cells [4] was 3.6 ± 0.53 µM.

The values above are taken from PMC11597353, “Synthesis of Novel Gefitinib-Conjugated 1,2,3-Triazole Derivatives and Their Effect of Inducing DNA Damage and Apoptosis in Tumor Cells” (Molecules, 2024).
